Drawing on PubChem BioAssay (NCI), this text covers TGI for 7 molecules.

SMILES strings stand for the structures.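 Grown in 96-well plates, cells were treated for 48 hours with each compound at five concentrations. Insufficient inhibition: endpoint recorded as highest concentration tested. At the TGI there is no net growth.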

Among the test systems are MDA-MB-435; CAKI-1 renal; SK-MEL-2 melanoma; RXF 393 renal; SK-MEL-28 melanoma; ACHN renal; NCI/ADR-RES ovarian; NCI-H460 lung; SW-620 colon; SNB-19 CNS; HCT-15 colon; SK-OV-3 ovarian; KM12 colon; RPMI-8226 leukemia; K-562 leukemia; SN12C renal; MOLT-4 leukemia; MALME-3M melanoma; HOP-62 NSCLC.
Common to all, as to experiment: NCI anticancer screen, dose series, 48 h

Regarding `Cc1cc(N(C)c2ccccc2)nc(N(C)c2ccccc2)n1`, the TGI is more than 100 µM with MDA-MB-435; more than 100 µM in the test with CAKI-1 renal; 36.9 µM in the test on SK-MEL-2 melanoma; 59.5 µM with RXF 393 renal; 98 µM with SK-MEL-28 melanoma; 95.7 µM with ACHN renal. Also, the TGI with NCI/ADR-RES ovarian, in the test on NCI-H460 lung, in the test with SW-620 colon, in the test on SNB-19 CNS, in the test on HCT-15 colon and with SK-OV-3 ovarian was more than 100 µM each time. Further, the TGI is 45.7 µM in the test on KM12 colon; 65.1 µM in the test on RPMI-8226 leukemia; more than 100 µM with K-562 leukemia; more than 100 µM with SN12C renal; 99.9 µM with MOLT-4 leukemia; 55.8 µM in the test on MALME-3M melanoma. In the test with HOP-62 NSCLC, this molecule gave a TGI of 72.8 µM.
For the molecule `CN(C)/C=N/c1cc(=O)n(C)c(=O)n1C`, the TGI in the test on MDA-MB-435, with CAKI-1 renal, in the test with SK-MEL-2 melanoma, in the test with RXF 393 renal, in the test with SK-MEL-28 melanoma and with ACHN renal was more than 100 µM throughout. For the same molecule, the TGI in the test on NCI/ADR-RES ovarian, with NCI-H460 lung, with SW-620 colon, in the test with SNB-19 CNS, with HCT-15 colon and in the test on SK-OV-3 ovarian was more than 100 µM each time. In addition, the TGI in the test with KM12 colon, with RPMI-8226 leukemia, in the test with K-562 leukemia, in the test on SN12C renal, with MOLT-4 leukemia and in the test on MALME-3M melanoma was more than 100 µM throughout. In the test on HOP-62 NSCLC, the TGI was more than 100 µM.
On to `CCOC(=O)/C1=C(\C)N(Cc2ccccc2)C(=O)c2ccccc2C(=O)c2c(OC(C)=O)ccc(OC(C)=O)c21`, for which the TGI with MDA-MB-435 was more than 100 µM; in the test with CAKI-1 renal it was more than 100 µM; in the test on SK-MEL-2 melanoma it was more than 100 µM; with RXF 393 renal, 93 µM; in the test with SK-MEL-28 melanoma, more than 100 µM; in the test on ACHN renal, more than 100 µM. Moreover, the TGI in the test on NCI/ADR-RES ovarian, in the test with NCI-H460 lung, with SW-620 colon, with SNB-19 CNS, in the test on HCT-15 colon and in the test with SK-OV-3 ovarian was more than 100 µM each time. For the same molecule, the TGI was more than 100 µM with KM12 colon; 45.1 µM in the test with RPMI-8226 leukemia; more than 100 µM in the test on K-562 leukemia; more than 100 µM in the test with SN12C renal; more than 100 µM with MOLT-4 leukemia; more than 100 µM with MALME-3M melanoma. The molecule also gave a TGI with HOP-62 NSCLC of more than 100 µM.
Regarding `O=C(O)CCC1C(=O)C2CCN1CC2` (stereo not drawn), the TGI in the test with MDA-MB-435, with CAKI-1 renal, with SK-MEL-2 melanoma, in the test on RXF 393 renal, in the test with SK-MEL-28 melanoma and in the test on ACHN renal was more than 100 µM each time. The TGI in the test on NCI/ADR-RES ovarian, in the test on NCI-H460 lung, in the test with SW-620 colon, with SNB-19 CNS, in the test on HCT-15 colon and in the test with SK-OV-3 ovarian was more than 100 µM each time. The TGI in the test with KM12 colon, in the test on RPMI-8226 leukemia, with K-562 leukemia, in the test with SN12C renal, in the test on MOLT-4 leukemia and in the test with MALME-3M melanoma was more than 100 µM each time. Also, the TGI in the test on HOP-62 NSCLC is more than 100 µM.
Take `COc1ccc(/C=N/NS(=O)(=O)c2ccc(/C=C3\NC(=O)NC3=O)cc2)cc1`: the TGI in the test on MDA-MB-435, in the test on CAKI-1 renal, in the test on SK-MEL-2 melanoma, in the test with RXF 393 renal, in the test on SK-MEL-28 melanoma and in the test on ACHN renal was more than 100 µM throughout. The TGI in the test on NCI/ADR-RES ovarian, in the test with NCI-H460 lung, in the test on SW-620 colon, in the test with SNB-19 CNS, in the test with HCT-15 colon and in the test on SK-OV-3 ovarian was more than 100 µM in each case. Further, the TGI in the test on KM12 colon, in the test with RPMI-8226 leukemia, in the test on K-562 leukemia, with SN12C renal, in the test on MOLT-4 leukemia and in the test on MALME-3M melanoma was more than 100 µM throughout. In the test with HOP-62 NSCLC, this molecule returned a TGI of more than 100 µM.
As for `O=C(NCCc1ccccn1)c1ccc2cc(C(=O)N3CC(CCl)c4ccc([N+](=O)[O-])cc43)[nH]c2c1` (stereo not drawn), the TGI is more than 100 µM in the test on MDA-MB-435; more than 52.7 µM in the test with CAKI-1 renal; more than 100 µM in the test with SK-MEL-2 melanoma; 60.3 µM in the test with RXF 393 renal; more than 100 µM in the test with SK-MEL-28 melanoma; more than 100 µM with ACHN renal. Also, the TGI is more than 100 µM in the test with NCI/ADR-RES ovarian; more than 100 µM in the test on NCI-H460 lung; more than 100 µM in the test on SW-620 colon; 87.5 µM in the test on SNB-19 CNS; more than 100 µM with HCT-15 colon; 46 µM in the test on SK-OV-3 ovarian. The TGI in the test with KM12 colon, in the test with RPMI-8226 leukemia, in the test with K-562 leukemia, in the test with SN12C renal, in the test on MOLT-4 leukemia and in the test on MALME-3M melanoma was more than 100 µM each time. In the test with HOP-62 NSCLC, this molecule returned a TGI of 48.4 µM.
`CC(=O)n1nc(-c2[nH]c(C)c(-c3nn(C(C)=O)c(=S)o3)c2C)oc1=S`: the TGI with MDA-MB-435, with CAKI-1 renal, in the test on SK-MEL-2 melanoma, in the test with RXF 393 renal, in the test on SK-MEL-28 melanoma and in the test on ACHN renal was more than 100 µM in each case. Also, the TGI in the test with NCI/ADR-RES ovarian, in the test on NCI-H460 lung, in the test on SW-620 colon, with SNB-19 CNS, with HCT-15 colon and in the test on SK-OV-3 ovarian was more than 100 µM throughout. For the same molecule, the TGI is more than 100 µM with KM12 colon; more than 100 µM in the test with RPMI-8226 leukemia; more than 100 µM in the test on K-562 leukemia; more than 100 µM with SN12C renal; more than 100 µM with MOLT-4 leukemia; more than 96.6 µM in the test with MALME-3M melanoma. The same molecule came in with a TGI in the test with HOP-62 NSCLC of more than 100 µM.
